Assay results from article PMC8867545 (ACS Omega, 2022).

Key:
[1] = system: β-glucosidase (β-Glcase); test: UV-vis absorption at […] nm, Lineweaver-Burk; format: biochemical, Prunus dulcis; conditions: 1x PBS pH 5.33, room temperature, 100 μg/mL enzyme, 5-200 μM substrate
[2] = system: β-glucosidase (β-Glcase); test: UV-vis absorption at […] nm, Lineweaver-Burk; format: biochemical, Prunus dulcis; conditions: 1x PBS pH 5.33, room temperature, 100 μg/mL enzyme, 10-500 μM substrate

Km [1] [µM] | Km [2] [µM] | Structure (SMILES)
162 |  | N#Cc1ccc(S[C@@H]2O[C@H](CO)[C@@H](O)[C@H](O)[C@H]2O)nc1 [Glc-p-MPN]
 | 228 | N#Cc1cccnc1S[C@@H]1O[C@H](CO)[C@@H](O)[C@H](O)[C@H]1O [Glc-o-MPN]
